The test system of series [1] is Phytophthora cactorum. The experiment in a line: Antifungal activity against Phytophthora cactorum assessed as inhibition of mycelial growth at 20 ppm at 21 +/- 1 degC measured after 5 days. Format: functional. The settings on record: 120 h, read-out: GI.
Series [2] in a line: Lipophilicity, log K of the compound in water. The settings on record: buffer. Format: physicochemical.
The subject of series [3] is Fusarium culmorum. The experiment in a line: Antifungal activity against Fusarium culmorum assessed as inhibition of mycelial growth at 20 ppm at 21 +/- 1 degC measured after 5 days. The settings on record: 120 h, read-out: GI. The format is functional.
In series [4] the test system is Botrytis cinerea. The experiment in a line: Antifungal activity against Botryotinia fuckeliana assessed as inhibition of mycelial growth at 200 ppm at 21 +/- 1 degC measured after 3 days. Format: functional. The settings on record: 72 h, read-out: GI.
Series [5] relates to Phytophthora cactorum. Description: Antifungal activity against Phytophthora cactorum assessed as inhibition of mycelial growth at 200 ppm at 21 +/- 1 degC measured after 5 days. The format is functional. To be noted: 120 h, read-out: GI.
The subject of series [6] is Botrytis cinerea. The experiment in a line: Antifungal activity against Botryotinia fuckeliana assessed as inhibition of mycelial growth at 20 ppm at 21 +/- 1 degC measured after 3 days. Format: functional. The settings on record: 72 h, read-out: GI.
A short description of series [7]: Octanol-water partition coefficient, log P of the compound. The format is physicochemical.
Series [8] relates to Alternaria alternata. Description: Antifungal activity against Alternaria alternata assessed as inhibition of mycelial growth at 200 ppm at 21 +/- 1 degC measured after 5 days. The format is functional. The settings on record: 120 h, read-out: GI.
The test system of series [9] is Rhizoctonia solani. The experiment in a line: Antifungal activity against Rhizoctonia solani assessed as inhibition of mycelial growth at 200 ppm at 21 +/- 1 degC measured after 4 days. The format is functional. The settings on record: 96 h, read-out: GI.
Series [10] concerns Rhizoctonia solani. The experiment in a line: Antifungal activity against Rhizoctonia solani assessed as inhibition of mycelial growth at 20 ppm at 21 +/- 1 degC measured after 4 days. Format: functional. To be noted: 96 h, read-out: GI.
Series [11] relates to Fusarium culmorum. Description: Antifungal activity against Fusarium culmorum assessed as inhibition of mycelial growth at 200 ppm at 21 +/- 1 degC measured after 5 days. Format: functional. The settings on record: 120 h, read-out: GI.
Series [12] has as its system Alternaria alternata. The experiment in a line: Antifungal activity against Alternaria alternata assessed as inhibition of mycelial growth at 20 ppm at 21 +/- 1 degC measured after 5 days. The settings on record: 120 h, read-out: GI. The format is functional.

As usually defined, the logP is the decadic logarithm of the partition coefficient of the neutral form, usually between octanol and water.

Take `Cc1cc(NC(=S)c2ccc(O)cc2O)ccc1N1C(=O)c2ccc(Cl)cc2C1=O`: the inhibition of growth at 20 ppm in the series on Phytophthora cactorum [1], with Fusarium culmorum [3], with Botrytis cinerea [6], in the series with Rhizoctonia solani [10] and in the series with Alternaria alternata [12] was 0% in each case. This compound also came in with a logKw in [2] of 3.63. The inhibition of growth at 200 ppm amounted to 0% in the series on Botrytis cinerea [4]; 0% in the series with Phytophthora cactorum [5]; 21% in the series on Alternaria alternata [8]; 0% in the series on Rhizoctonia solani [9]; 21% in the series on Fusarium culmorum [11]. Besides, the logP in series [7] worked out at 4.57.

`CCN(C(=S)c1ccc(O)cc1O)c1cccc2ccccc12`: the inhibition of growth at 20 ppm with Phytophthora cactorum [1], in the series on Fusarium culmorum [3], in the series on Botrytis cinerea [6], in the series with Rhizoctonia solani [10] and with Alternaria alternata [12] was 0% throughout. Besides, in series [2], the logKw is 5.09. Moreover, the inhibition of growth at 200 ppm in the series on Botrytis cinerea [4] was determined as 0%; with Phytophthora cactorum [5], 21%; in the series on Alternaria alternata [8] it was 21%; in the series with Rhizoctonia solani [9] it was 0%; in the series with Fusarium culmorum [11], 21%. In addition, the logP in [7] is 5.03.

As to `Oc1ccc(C(=S)N(c2ccccc2)c2nnns2)c(O)c1`, the inhibition of growth at 20 ppm was 21% with Phytophthora cactorum [1]; 21% in the series on Fusarium culmorum [3]; 51% with Botrytis cinerea [6]; 21% in the series with Rhizoctonia solani [10]; 51% in the series with Alternaria alternata [12]. This compound yielded a logKw in [2] of 3.3. The inhibition of growth at 200 ppm with Botrytis cinerea [4], in the series with Phytophthora cactorum [5], in the series on Alternaria alternata [8], in the series with Rhizoctonia solani [9] and in the series with Fusarium culmorum [11] was 81% throughout.

As for `Oc1ccc(C(=S)N(Cc2ccccc2)c2ccccn2)c(O)c1`, the inhibition of growth at 20 ppm with Phytophthora cactorum [1], in the series with Fusarium culmorum [3], in the series on Botrytis cinerea [6], in the series with Rhizoctonia solani [10] and in the series on Alternaria alternata [12] was 0% each time. This compound yielded a logKw in [2] of 3.96. The inhibition of growth at 200 ppm in the series on Botrytis cinerea [4] was found to be 51%; with Phytophthora cactorum [5] it was 21%; in the series with Alternaria alternata [8], 21%; with Rhizoctonia solani [9], 21%; with Fusarium culmorum [11] it was 21%. In series [7], this compound came in with a logP of 4.56.

Consider `C=C(C)c1ccccc1NC(=S)c1ccc(O)cc1O`, for which the inhibition of growth at 20 ppm with Phytophthora cactorum [1], in the series on Fusarium culmorum [3], in the series with Botrytis cinerea [6], in the series on Rhizoctonia solani [10] and in the series on Alternaria alternata [12] was 51% each time. Further, in series [2], the logKw came to 4.55. Moreover, the inhibition of growth at 200 ppm in the series with Botrytis cinerea [4], in the series with Phytophthora cactorum [5], with Alternaria alternata [8], in the series on Rhizoctonia solani [9] and with Fusarium culmorum [11] was 81% in each case. This compound also came in with a logP in series [7] of 4.27.

Regarding `O=[N+]([O-])c1cc(NC(=S)c2ccc(O)cc2O)ccc1F`, the inhibition of growth at 20 ppm was 21% in the series on Phytophthora cactorum [1]; 21% with Fusarium culmorum [3]; 21% in the series with Botrytis cinerea [6]; 51% in the series on Rhizoctonia solani [10]; 21% in the series with Alternaria alternata [12]. The compound also gave a logKw in series [2] of 3.96. In addition, the inhibition of growth at 200 ppm in the series with Botrytis cinerea [4], with Phytophthora cactorum [5], in the series with Alternaria alternata [8], in the series with Rhizoctonia solani [9] and with Fusarium culmorum [11] was 81% in each case. Besides, in series [7], the logP came out at 3.43.

As to `Oc1ccc(C(=S)Nc2cc(C(F)(F)F)cc(C(F)(F)F)c2)c(O)c1`, the inhibition of growth at 20 ppm in the series on Phytophthora cactorum [1] amounted to 51%; with Fusarium culmorum [3] it was 51%; in the series with Botrytis cinerea [6], 51%; in the series with Rhizoctonia solani [10], 21%; in the series with Alternaria alternata [12], 51%. The compound further returned a logKw in series [2] of 6.06. Also, the inhibition of growth at 200 ppm with Botrytis cinerea [4], in the series with Phytophthora cactorum [5], in the series on Alternaria alternata [8], in the series with Rhizoctonia solani [9] and with Fusarium culmorum [11] was 81% each time. Moreover, the logP in series [7] stood at 4.75.

Turning to `Oc1ccc(C(=S)Nc2cccc3c2CCCC3)c(O)c1`, the inhibition of growth at 20 ppm in the series on Phytophthora cactorum [1], in the series on Fusarium culmorum [3], in the series on Botrytis cinerea [6], in the series on Rhizoctonia solani [10] and with Alternaria alternata [12] was 51% in each case. For the same compound, in series [2], the logKw stood at 3.56. The inhibition of growth at 200 ppm with Botrytis cinerea [4], in the series with Phytophthora cactorum [5], in the series with Alternaria alternata [8], in the series on Rhizoctonia solani [9] and with Fusarium culmorum [11] was 81% throughout. This compound also yielded a logP in series [7] of 4.22.

As for `O=C(c1ccccc1)c1ccc(NC(=S)c2ccc(O)cc2O)cc1`, the inhibition of growth at 20 ppm with Phytophthora cactorum [1] was found to be 21%; in the series with Fusarium culmorum [3] it was 0%; in the series with Botrytis cinerea [6], 0%; in the series on Rhizoctonia solani [10], 0%; with Alternaria alternata [12] it was 0%. Also, the logKw in series [2] is 4.28. Further, the inhibition of growth at 200 ppm with Botrytis cinerea [4], in the series on Phytophthora cactorum [5], in the series with Alternaria alternata [8], in the series with Rhizoctonia solani [9] and in the series on Fusarium culmorum [11] was 51% throughout. Moreover, the logP in series [7] is 4.12.

For `Oc1ccc(C(=S)Nc2ccccc2-n2cccc2)c(O)c1`, the inhibition of growth at 20 ppm was 21% in the series on Phytophthora cactorum [1]; 51% in the series with Fusarium culmorum [3]; 21% with Botrytis cinerea [6]; 51% in the series with Rhizoctonia solani [10]; 21% in the series on Alternaria alternata [12]. The logKw in [2] came to 3.59. Moreover, the inhibition of growth at 200 ppm in the series with Botrytis cinerea [4], in the series on Phytophthora cactorum [5], in the series with Alternaria alternata [8], with Rhizoctonia solani [9] and in the series with Fusarium culmorum [11] was 81% in each case. In [7], this compound gave a logP of 3.29.

On to `Oc1ccc(C(=S)Nc2ccc(N3CCOCC3)cc2)c(O)c1`, for which the inhibition of growth at 20 ppm in the series on Phytophthora cactorum [1], in the series on Fusarium culmorum [3], in the series with Botrytis cinerea [6], in the series on Rhizoctonia solani [10] and in the series with Alternaria alternata [12] was 0% in each case. The logKw in series [2] is 2.49. Also, the inhibition of growth at 200 ppm in the series with Botrytis cinerea [4] was determined as 21%; in the series with Phytophthora cactorum [5] it was 21%; with Alternaria alternata [8], 0%; in the series with Rhizoctonia solani [9] it was 0%; in the series with Fusarium culmorum [11] it was 21%. In [7], this compound gave a logP of 2.79.

On to `Oc1ccc(C(=S)Nc2nc(=S)ss2)c(O)c1`, for which the inhibition of growth at 20 ppm turned out to be 51% in the series on Phytophthora cactorum [1]; 21% with Fusarium culmorum [3]; 51% in the series with Botrytis cinerea [6]; 21% in the series with Rhizoctonia solani [10]; 21% in the series on Alternaria alternata [12]. For the same compound, the logKw in series [2] stood at 2.99. In addition, the inhibition of growth at 200 ppm in the series on Botrytis cinerea [4], in the series with Phytophthora cactorum [5], in the series on Alternaria alternata [8], in the series with Rhizoctonia solani [9] and in the series on Fusarium culmorum [11] was 81% throughout. In series [7], this compound yielded a logP of 4.45.

With `Cc1ccc2sc(-c3ccc(NC(=S)c4ccc(O)cc4O)cc3)nc2c1`, the inhibition of growth at 20 ppm in the series with Phytophthora cactorum [1], in the series with Fusarium culmorum [3], in the series on Botrytis cinerea [6], with Rhizoctonia solani [10] and in the series with Alternaria alternata [12] was 0% in each case. Besides, the logKw in [2] worked out at 4.87. Besides, the inhibition of growth at 200 ppm with Botrytis cinerea [4] worked out at 0%; with Phytophthora cactorum [5], 0%; with Alternaria alternata [8], 21%; with Rhizoctonia solani [9], 0%; in the series on Fusarium culmorum [11] it was 21%. Besides, the logP in series [7] stood at 3.89.

As for `COC(=O)Nc1nc2ccccc2[nH]1` [CARBENDAZIM], the inhibition of growth at 20 ppm with Phytophthora cactorum [1], with Fusarium culmorum [3] and with Rhizoctonia solani [10] was 81% in each case. Also, the inhibition of growth at 200 ppm with Phytophthora cactorum [5], in the series with Rhizoctonia solani [9] and in the series on Fusarium culmorum [11] was 81% in each case.

Turning to `CCCN(CCOc1c(Cl)cc(Cl)cc1Cl)C(=O)n1ccnc1` [PROCHLORAZ], the inhibition of growth at 20 ppm in the series with Phytophthora cactorum [1], in the series on Fusarium culmorum [3] and in the series with Alternaria alternata [12] was 81% throughout. Further, the inhibition of growth at 200 ppm with Phytophthora cactorum [5], in the series on Alternaria alternata [8] and in the series on Fusarium culmorum [11] was 81% each time.

With `CC12CC1(C)C(=O)N(c1cc(Cl)cc(Cl)c1)C2=O` (stereo unspecified) [PROCYMIDONE], the inhibition of growth at 200 ppm with Botrytis cinerea [4] and with Alternaria alternata [8] was 81% throughout. Further, the inhibition of growth at 20 ppm in the series with Botrytis cinerea [6] and in the series with Alternaria alternata [12] was 81% throughout.

The values are drawn from ChEMBL document CHEMBL3046243, “Synthesis, antifungal activity and SAR of N-substituted and N,N-disubstituted 2,4-dihydroxythiobenzamides” (J Pestic Sci, 2006).
